This note sets out measurements from patent US6919424B2, “Binding peptides for carcinoembryonic antigen (CEA)” (Dyax Corp., priority 2000, dated 2005).

Assay [1] deals with T1, H6NA3 (Homo sapiens, UniProt P06731).
T1 construct: H6NA3, consisting of a hexahistidine leader and the N and A3 domains of CEA, was used
T1 sequence (P06731 35-144 limits assumed): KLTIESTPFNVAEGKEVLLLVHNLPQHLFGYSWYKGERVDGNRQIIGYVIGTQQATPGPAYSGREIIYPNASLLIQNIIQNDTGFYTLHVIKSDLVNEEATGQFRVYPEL
T1 sequence (P06731 501-588 limits assumed): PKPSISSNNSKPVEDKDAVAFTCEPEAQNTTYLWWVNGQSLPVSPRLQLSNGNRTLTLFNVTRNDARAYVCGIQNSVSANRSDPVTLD
The assay can be described thus: Fluorescence anisotropy direct binding to H6NA3 / NA3. The conditions noted are these: from KD of Table 7 versus Table 3. As to the method: Each peptide was also provided with a C-terminal amide-functional linker useful for immobilizing peptides to various chromatographic substrates: -Ala18-Pro19-Gly20-Gly-Glu-Gly-Gly-Gly-Ser-Lys-CONH2 (SEQ ID NO:28). […] Aliquots of each peptide were fluorescently labeled using NHS-fluorescein reacted with the ε-amino side group of the C-terminal lysine.
Dissociation constants were determined using fluorescence anisotropy, through direct binding measurements and competition experiments. In direct binding assays, the concentration of the fluorescein-labeled peptide is held constant and the concentration of H6NA3 is varied. In the competition experiment, the concentration of the fluorescein-labeled peptide and the H6NA3 target are held constant and the concentration of a competitor (cT84.66, unlabeled) is varied. The change in anisotropy is fit to the appropriate equation via nonlinear regression to obtain the apparent Kd.
Aliquots of each peptide were fluorescently labeled using NHS-fluorescein reacted with the ε-amino side group of the C-terminal lysine.
Dissociation constants were determined using fluorescence anisotropy, through direct binding measurements (see Example 6).
Peptides including the binding domain of the CEA binder Isolates were synthesized by solid-phase synthesis. Each peptide was also provided with a C-terminal amide-functional linker useful for immobilizing peptides to various chromatographic substrates: -Ala18-Pro19-Gly20-Gly-Glu-Gly-Gly-Gly-Ser-Lys-CONH2 (SEQ ID NO:28). […] Aliquots of each peptide were fluorescently labeled using NHS-fluorescein reacted with the ε-amino side group of the C-terminal lysine.
Dissociation constants were determined using fluorescence anisotropy, through direct binding measurements to either NA-3 or CEA in PBS with 0.01% TWEEN 20. […] Isolate 304A-12-H12, previously isolated from Lib2 and assayed for binding, was analyzed in parallel as a control. […] KD standard error values are calculated from the nonlinear regression (SIGMAPLOT, SPSS Science, Chicago, Ill.).
On the technique in general: In fluorescence polarisation assays a small probe gives low polarisation when free and higher when bound to something large.

Assay [2] has as its target T2, NA3 (Homo sapiens, UniProt P06731).
T2 construct: H6NA3, consisting of a hexahistidine leader and the N and A3 domains of CEA, was used
T2 sequence (P06731 35-144 limits assumed): T1 sequence (P06731 35-144 limits assumed)
T2 sequence (P06731 501-588 limits assumed): T1 sequence (P06731 501-588 limits assumed)
Nature of the assay: Phage ELISA with varying amounts of NA3 per well (FIGS. 2, 4, 5). In kind it is binding. The conditions noted are these: FIG. 2; 100, 50, 10, 5, 1, 0 ng per well. As to the method:
The first bar for each sample represents wells each having 100 ng CEA. Successive bars represent 50 ng, 10 ng, 5 ng, 1 ng, and 0 ng CEA per well.
The first bar for each sample represents wells each having 30 ng NA3. Successive bars represent 10 ng, 3 ng, and 0 ng NA3 per well.
Several Isolates gave especially strong ELISA signals and these were tested further.
Several Isolates gave especially strong ELISA signals and these were tested further. […] Isolate 304A-12-H12 (designated DX306) was assayed in parallel as a basis for comparison.
On the technique in general: In an ELISA, binding on a coated surface is turned into a signal by an enzyme label.

The target in assay [3] is T3, CEA (Homo sapiens, UniProt P06731).
T3 construct: purchased
T3 sequence (P06731 35-676): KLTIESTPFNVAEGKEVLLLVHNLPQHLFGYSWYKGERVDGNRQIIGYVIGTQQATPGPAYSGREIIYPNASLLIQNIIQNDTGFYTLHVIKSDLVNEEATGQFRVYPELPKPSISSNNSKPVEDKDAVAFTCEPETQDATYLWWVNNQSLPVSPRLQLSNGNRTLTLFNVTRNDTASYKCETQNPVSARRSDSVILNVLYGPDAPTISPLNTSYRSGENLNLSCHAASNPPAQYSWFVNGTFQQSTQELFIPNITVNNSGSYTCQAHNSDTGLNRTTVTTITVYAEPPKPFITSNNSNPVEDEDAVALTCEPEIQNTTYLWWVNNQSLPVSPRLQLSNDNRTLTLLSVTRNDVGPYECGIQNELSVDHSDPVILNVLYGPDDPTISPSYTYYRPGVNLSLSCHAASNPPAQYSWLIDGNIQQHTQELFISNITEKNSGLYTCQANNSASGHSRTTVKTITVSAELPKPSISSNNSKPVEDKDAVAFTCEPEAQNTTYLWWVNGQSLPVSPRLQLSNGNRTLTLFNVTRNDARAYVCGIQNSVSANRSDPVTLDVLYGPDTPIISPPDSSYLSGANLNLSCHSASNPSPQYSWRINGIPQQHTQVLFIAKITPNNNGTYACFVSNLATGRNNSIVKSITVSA
Nature of the assay: Fluorescence anisotropy direct binding to CEA. The conditions noted are these: compared with binding to NA3. How it is done: Dissociation constants were determined using fluorescence anisotropy, through direct binding measurements to either NA-3 or CEA in PBS with 0.01% TWEEN 20. In direct binding assays, the concentration of the fluorescein-labeled peptide is held constant and the concentration of NA3 is varied. In the competition experiment, the concentration of the fluorescein-labeled peptide and the NA3 target are held constant and the concentration of competitor peptide (from Isolate 12-H12) is varied. The change in anisotropy is fit to the appropriate equation via nonlinear regression to obtain the apparent Kd. Isolate 304A-12-H12, previously isolated from Lib2 and assayed for binding, was analyzed in parallel as a control. Replicate analyses were run for certain binders and are reported to confirm accuracy and precision of measurements. KD standard error values are calculated from the nonlinear regression (SIGMAPLOT, SPSS Science, Chicago, Ill.).

In assay [4] the target is T3, CEA. The assay can be described thus: Later evaluation of CEA binding, method not given.

For `CC(C)C[C@H](NC(=O)[C@@H](NC(=O)[C@H](CC(N)=O)NC(=O)[C@@H]1CSSC[C@H](NC(=O)[C@@H](NC(=O)[C@H](Cc2c[nH]c3ccccc23)NC(=O)[C@H](CC(=O)O)NC(=O)[C@@H](N)CO)C(C)C)C(=O)N[C@@H](CCC(=O)O)C(=O)N[C@@H](Cc2ccc(O)cc2)C(=O)N[C@@H](Cc2ccccc2)C(=O)N[C@@H](CCCCN)C(=O)N[C@@H](CC(N)=O)C(=O)N[C@@H](CCC(N)=O)C(=O)N[C@@H](Cc2c[nH]c3ccccc23)C(=O)N[C@@H](Cc2ccccc2)C(=O)N1)C(C)C)C(=O)N[C@@H](C)C(=O)N1CCC[C@H]1C(=O)NCC(=O)NCC(=O)N[C@@H](CCC(=O)O)C(=O)NCC(=O)NCC(=O)NCC(=O)N[C@@H](CO)C(=O)N[C@@H](CCCCNC(=O)c1ccc2c(c1)C(=O)OC21c2ccc(O)cc2Oc2cc(O)ccc21)C(N)=O` [Isolate 304A-12-H12, DWVCEYFKNQWFCNVL], in assay [1], the “increase in affinity compared to the Isolate G08 peptide” value is given as 8 fold. Further, the “phage ELISA binding profile to varying amounts of NA3” value in assay [2] was “do not drop off so quickly”. Further, in assay [3], the “binding to CEA (in words)” value is listed as “effectively bound CEA, but not as strongly as they bound NA3”.

Regarding “-RYCEFFPWSLHCGRP (Isolate of TN10/9 library found not to bind CEA) [Isolate B10]”, in assay [4], the “binding to CEA with useful affinity” value is recorded as “not to bind CEA with useful affinity”.

Regarding “NWRCKLFPRYPYCSSW (Isolate of TN10/9 library found not to bind CEA) [Isolate G01]”, the “binding to CEA with useful affinity” value in assay [4] was “not to bind CEA with useful affinity”.
